ChEMBL document CHEMBL1129946, “New esters of 4-amino-5-chloro-2-methoxybenzoic acid as potent agonists and antagonists for 5-HT4 receptors” (J Med Chem, 1997)

Columns and labels:
[1] = target: 5-hydroxytryptamine receptor 4 (Rattus norvegicus, UniProt Q62758); assay: Binding affinity towards 5-hydroxytryptamine 4 receptor was determined in rat striatal membranes using [3H]GR-113808 as radioligand; format: cell membranes, Striatum, Membrane
[2] = target: T1, 5-hydroxytryptamine receptor 4 (Cavia porcellus, UniProt O70528); assay: 5-hydroxytryptamine 4 receptor antagonist activity, concentration which gave 50% reduction of the 5-HT-induced contractions in the guinea pig ileum; format: functional, tissue-based
T1 sequence (O70528 whole entry): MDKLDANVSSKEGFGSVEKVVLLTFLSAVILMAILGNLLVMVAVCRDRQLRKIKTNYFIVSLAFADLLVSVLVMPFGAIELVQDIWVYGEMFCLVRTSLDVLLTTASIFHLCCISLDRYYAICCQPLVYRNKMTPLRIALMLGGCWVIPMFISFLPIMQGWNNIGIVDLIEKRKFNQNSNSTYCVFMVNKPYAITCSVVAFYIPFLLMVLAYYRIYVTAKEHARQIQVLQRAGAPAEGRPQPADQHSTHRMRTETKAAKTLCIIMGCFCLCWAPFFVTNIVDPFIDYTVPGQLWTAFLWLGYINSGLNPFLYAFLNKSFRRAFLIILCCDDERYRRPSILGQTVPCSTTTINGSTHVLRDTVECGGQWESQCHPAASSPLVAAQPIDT

[3] = target: T1, 5-hydroxytryptamine receptor 4; assay: 5-hydroxytryptamine 4 receptor agonist activity, concentration which gave 50% increase in the response to electrically-stimulated myenteric plexus and longitudinal muscle of the guinea pig ileum; format: functional, tissue-based
[4] = target: 5-hydroxytryptamine receptor 4 (Cavia porcellus) (UniProt O70528); assay: 5-hydroxytryptamine 4 receptor agonist activity is expressed as percent of the maximum 5-HT response; format: functional
5-hydroxytryptamine receptor 4 (Cavia porcellus), sequence (O70528 whole entry): as above

[5] = target: T1, 5-hydroxytryptamine receptor 4
[6] = target: T2, Serotonin 3 (5-HT3) receptor (Rattus norvegicus, UniProt P35563+Q9JJ16); assay: Binding affinity was measured on 5-hydroxytryptamine 3 receptor using [3H]-BRL 43694 as radioligand in rat posterior cortex.
T2 sequence (P35563 whole entry): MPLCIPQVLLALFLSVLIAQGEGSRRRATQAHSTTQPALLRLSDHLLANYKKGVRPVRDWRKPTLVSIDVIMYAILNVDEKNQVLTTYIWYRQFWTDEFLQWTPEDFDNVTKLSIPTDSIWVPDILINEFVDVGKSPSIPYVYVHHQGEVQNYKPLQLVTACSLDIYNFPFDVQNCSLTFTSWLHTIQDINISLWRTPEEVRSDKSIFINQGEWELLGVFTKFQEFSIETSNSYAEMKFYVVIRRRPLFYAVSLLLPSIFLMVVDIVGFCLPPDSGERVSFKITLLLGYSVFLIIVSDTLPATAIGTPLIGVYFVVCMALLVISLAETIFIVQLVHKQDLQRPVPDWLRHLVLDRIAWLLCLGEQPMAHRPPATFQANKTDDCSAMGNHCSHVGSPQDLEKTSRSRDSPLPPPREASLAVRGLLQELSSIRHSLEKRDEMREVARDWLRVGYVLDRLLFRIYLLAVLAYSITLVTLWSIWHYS
T2 sequence (Q9JJ16 whole entry): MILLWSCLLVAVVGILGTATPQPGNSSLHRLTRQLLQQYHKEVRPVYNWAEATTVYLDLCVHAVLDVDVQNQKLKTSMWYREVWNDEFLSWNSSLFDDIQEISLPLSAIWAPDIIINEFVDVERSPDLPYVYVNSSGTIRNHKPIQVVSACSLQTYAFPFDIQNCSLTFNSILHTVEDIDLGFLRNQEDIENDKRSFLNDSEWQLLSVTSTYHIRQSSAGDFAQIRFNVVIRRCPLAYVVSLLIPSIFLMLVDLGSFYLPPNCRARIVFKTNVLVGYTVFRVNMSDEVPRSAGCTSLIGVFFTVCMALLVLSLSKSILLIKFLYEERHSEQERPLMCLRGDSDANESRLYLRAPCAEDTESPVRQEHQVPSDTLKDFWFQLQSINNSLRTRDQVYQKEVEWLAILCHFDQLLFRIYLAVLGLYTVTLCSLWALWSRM

[7] = target: T1, 5-hydroxytryptamine receptor 4; assay: 5-hydroxytryptamine 4 receptor antagonist activity, concentration which gave 50% reduction of the 5-HT-induced contractions in the guinea pig ileum; Inactive up to 10E-5 M; format: functional, tissue-based
[8] = target: T2, Serotonin 3 (5-HT3) receptor; assay: Binding affinity was measured on 5-hydroxytryptamine 3 receptor using [3H]-BRL 43694 as radioligand in rat posterior cortex

5-hydroxytryptamine receptor 4 (Rattus norvegicus, UniProt Q62758), sequence (Q62758 whole entry): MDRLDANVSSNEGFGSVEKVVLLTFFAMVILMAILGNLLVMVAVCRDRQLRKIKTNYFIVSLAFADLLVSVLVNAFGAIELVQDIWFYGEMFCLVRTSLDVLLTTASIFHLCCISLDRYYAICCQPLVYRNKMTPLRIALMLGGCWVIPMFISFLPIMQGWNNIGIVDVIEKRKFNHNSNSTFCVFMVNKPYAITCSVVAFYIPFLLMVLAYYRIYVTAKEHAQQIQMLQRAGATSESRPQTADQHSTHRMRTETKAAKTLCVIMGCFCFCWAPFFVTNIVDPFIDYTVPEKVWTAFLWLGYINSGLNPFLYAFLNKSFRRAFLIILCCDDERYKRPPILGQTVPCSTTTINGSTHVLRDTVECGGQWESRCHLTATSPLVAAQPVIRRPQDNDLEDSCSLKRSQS

CCN(CC)CCOC(=O)c1cc(Cl)c(N)cc1OC
Ki [1]: 5.5 nM

COc1cc(N)c(Cl)cc1C(=O)OCC[N+]12CCC(CC1)CC2
IC50 [2]: ~20 nM | EC50 [3]: 5.3 nM | Activity [4]: 78% | Ki [1]: 6.03 nM

COc1cc(N)c(Cl)cc1C(=O)NCCN1CC(C)CC(C)C1 (centres undefined)
EC50 [3]: ~930 nM | Activity [4]: 80% | Ki [1]: 103 nM

COc1cc(N)c(Cl)cc1C(=O)OCCN1CCN(c2ccccc2)CC1
IC50 [2]: 100 nM

COc1cc(N)c(Cl)cc1C(=O)OCCN1CCCC1
IC50 [2]: 200 nM | EC50 [3]: 40 nM | Activity [4]: 50% | Ki [1]: 5.35 nM

COc1cc(N)c(Cl)cc1C(=O)NC1CC2CCC(C1)N2C (centres undefined)
Ki [1]: 48.6 nM

COc1cc(N)c(Cl)cc1C(=O)N[C@H]1CN2CCC1CC2 [(R)ZACOPRIDE]
EC50 [3]: 166 nM | Activity [4]: 84% | Ki [1]: 1510 nM

COc1cc(N)c(Cl)cc1C(=O)N(C)CCN1CCCCC1
IC50 [2]: > 1000 nM | EC50 [3]: > 1000 nM | Ki [1]: > 1000 nM

COc1cc(N)c(Cl)cc1C(=O)OCCN1CCC(C)CC1
EC50 [3]: 3 nM | Activity [4]: 57% | Ki [1]: 4.08 nM

CC(C)n1c(=O)n(C(=O)NC2CC3CCC(C2)N3C)c2ccccc21 (centres undefined)
EC50 [3]: 43 nM | IC50 [5]: Not Active | Ki [1]: 257 nM

COc1cc(N)c(Cl)cc1C(=O)OCCN1CC(C)CC(C)C1 (stereo in doubt; 7g)
IC50 [2]: 11 nM | Ki [6]: > 1000 nM | Ki [1]: 0.26 nM

COc1cc(N)c(Cl)cc1C(=O)OCCN1CCCCCC1
EC50 [3]: 4.4 nM | Activity [4]: 59% | Ki [1]: 0.92 nM

COc1cc(N)c(Cl)cc1C(=O)OCCN1CCOCC1
EC50 [3]: 113 nM | IC50 [7]: Not Active | Ki [1]: 35.6 nM

Cn1cc(C(=O)OCC2CCN(CCNS(C)(=O)=O)CC2)c2ccccc21
IC50 [2]: 13 nM | Ki [1]: 0.15 nM

COc1cc(N)c(Cl)cc1C(=O)OCCN1CCCCC1C (centres undefined)
EC50 [3]: 6 nM | Activity [4]: 82% | Ki [1]: 7.8 nM

COc1cc(N)c(Cl)cc1C(=O)OCCN1CC(C)OC(C)C1 (centres undefined)
IC50 [2]: 300 nM | IC50 [5]: Not Active | Ki [1]: 6.28 nM

COc1cc(N)c(Cl)cc1C(=O)OCCN1CCCC(O)C1 (stereo in doubt; 7k) [listing 1 of 2 here]
Activity [4]: 62%

COc1cc(N)c(Cl)cc1C(=O)OCCN1CCCC(O)C1 (stereo in doubt; 7k) [listing 2 of 2 here]
EC50 [3]: 4 nM | Ki [1]: 1 nM

COc1cc(N)c(Cl)cc1C(=O)OCCN1CCCC(O)C1 (stereo in doubt; 7j) [listing 1 of 2 here]
EC50 [3]: 5 nM | Ki [8]: > 1000 nM | Ki [1]: 4.8 nM

COc1cc(N)c(Cl)cc1C(=O)OCCN1C(C)CCCC1C (centres undefined)
Ki [1]: 39.5 nM

COc1cc(N)c(Cl)cc1C(=O)OCCN1CCCC(C)(C)C1
IC50 [2]: 150 nM | Ki [1]: 1.72 nM

COc1cc(N)c(Cl)cc1C(=O)OCCN(C)C
IC50 [2]: 600 nM | EC50 [3]: 180 nM | Activity [4]: 60% | Ki [1]: 47 nM

COc1cc(N)c(Cl)cc1C(=O)OCCN1CC(C)CC(C)C1 (stereo in doubt; 7h)
IC50 [2]: 13 nM | Ki [6]: > 1000 nM | Ki [1]: 2.32 nM

COc1cc(N)c(Cl)cc1C(=O)OCCN1CCCC(C)C1 (centres undefined)
EC50 [3]: 15 nM | Ki [6]: > 1000 nM | Activity [4]: 54% | Ki [1]: 0.93 nM

COc1cc(N)c(Cl)cc1C(=O)OCCN1CC2CCC(CC2)C1
EC50 [3]: 7.8 nM | Activity [4]: 61% | Ki [1]: 5.45 nM

COc1cc(N)c(Cl)cc1C(=O)OCCN1CCC(C(N)=O)CC1
EC50 [3]: 19 nM | Activity [4]: 65% | Ki [1]: 1.43 nM

COc1cc(N)c(Cl)cc1C(=O)OCCN1CCCC(O)C1 (stereo in doubt; 7j) [listing 2 of 2 here]
Activity [4]: 64%

COc1cc(N)c(Cl)cc1C(=O)NCCN1CCCCC1
IC50 [2]: > 1000 nM | EC50 [3]: > 1000 nM | Ki [1]: 135 nM

COc1cc(N)c(Cl)cc1C(=O)OCC[n+]1ccccc1
EC50 [3]: 17 nM | Ki [1]: 6.2 nM

NCCc1c[nH]c2ccc(O)cc12 [SEROTONIN]
IC50 [5]: Not Active

COc1cc(N)c(Cl)cc1C(=O)OCCN1CCC(O)CC1
EC50 [3]: 14 nM | Activity [4]: 72% | Ki [1]: 1.42 nM

COc1cc(N)c(Cl)cc1C(=O)OCCCN1CCCCC1
EC50 [3]: 30 nM | Activity [4]: 52% | Ki [1]: 28.1 nM

COc1cc(N)c(Cl)cc1C(=O)OC1CC2CCC(C1)N2C (centres undefined)
Activity [4]: 41%

COc1cc(N)c(Cl)cc1C(=O)OCCN1CCCC(O)C1 (stereo in doubt; 7l) [listing 1 of 2 here]
Activity [4]: 61%

COc1cc(N)c(Cl)cc1C(=O)OCCN1CCCC(O)C1 (stereo in doubt; 7l) [listing 2 of 2 here]
EC50 [3]: 10 nM | Ki [1]: 2 nM

COc1cc(N)c(Cl)cc1C(=O)OCCN1CCC(NC(C)=O)CC1
EC50 [3]: 13 nM | Activity [4]: 59% | Ki [1]: 1.05 nM

COc1cc(N)c(Cl)cc1C(=O)OCCN1CC=CCC1
EC50 [3]: 29 nM | Activity [4]: 65% | Ki [1]: 9.1 nM

COc1cc(N)c(Cl)cc1C(=O)OCCN1C2CCCC1CC2
EC50 [3]: 40 nM | Activity [4]: 63% | Ki [1]: 9.3 nM

COc1cc(N)c(Cl)cc1C(=O)OCCN1CCCCC1
Ki [6]: 730 nM

COc1cc(N)c(Cl)cc1C(=O)NCCN(C)C
Ki [1]: > 1000 nM

COc1cc(N)c(Cl)cc1C(=O)N[C@@H]1CN2CCC1CC2
EC50 [3]: 77 nM | Activity [4]: 100%
